Measurements taken from US12692253B2, “Antimicrobial compounds and methods” (Curza Global, LLC, priority 2019, dated 2026).

Legend:
[1] = test system: E. coli S30 extract (bacterial protein synthesis); assay: E. coli S30 extract coupled transcription-translation luciferase assay (inhibition of bacterial protein synthesis); format: biochemical; conditions: % inhibition @ 1 μM, read-out: S30 IC50 (μM/% inhib.)
Procedure, shortened: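 Luciferase luminescence quantified inhibition of protein synthesis relative to water controls, with no-DNA reactions giving background. Compounds in 2-fold serial dilution (8 levels) were incubated 1 hour at 37 °C with E. coli S30 extract, amino acids and pBESTluc plasmid, then chilled to stop.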

[2] = target: Rabbit Reticulocyte Lysate (eukaryotic protein synthesis); assay: Rabbit reticulocyte lysate luciferase assay (inhibition of eukaryotic protein synthesis); format: biochemical; conditions: % inhibition @ 1 μM, read-out: Rabbit reticulocyte IC50 (μM/% inhib.)
Procedure, shortened: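 Percent inhibition calculated against water-only controls from luminescence; background set by lysate lacking RNA. Compounds, 8-point 2-fold titration, incubated 90 minutes at 30° C with nuclease-treated rabbit reticulocyte lysate programmed with luciferase control RNA plus complete amino acids.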

A. baumannn (Ab) = assay: Broth microdilution minimum inhibitory concentration (MIC), CLSI; format: cell-based; conditions: A. baumannn; growth medium with sodium bicarbonate; read-out: Ab + bicarb MIC
Procedure, shortened: (§1)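 CLSI broth microdilution with modification: 8-point two-fold compound dilutions in CAMHB, CAMHB plus 6.25 or 25 mM sodium bicarbonate, or CAMHB plus 0–50% heat-inactivated human serum. Inoculum 5×10^4 CFU/well from log-phase cultures adjusted to 0.5 McFarland; triplicate wells.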

E. coli (Ec) = assay: as above; format: cell-based; conditions: Escherichia coli, growth medium with sodium bicarbonate, read-out: E. coli + bicarb MIC
Procedure, shortened: as §1

E. faecalis (Ef) = assay: as above; format: cell-based; conditions: growth medium with sodium bicarbonate; for MIC: Enterococcus faecalis, read-out: Ef + bicarb MIC
Procedure, shortened: as §1

P. aeruginosa (Pa) = assay: as above; format: cell-based; conditions: Pseudomonas aeruginosa, growth medium with sodium bicarbonate, read-out: Pa MIC + bicarb
Procedure, shortened: as §1

S. aureus (Sa) = assay: as above; format: cell-based; conditions: Staphylococcus aureus, growth medium with sodium bicarbonate, read-out: Sa + bicarb MIC
Procedure, shortened: as §1

## CC(C)(N)C(=O)N1CCN(C(=O)Nc2ccn(-c3ccc(CN4C[C@@H]5C([C@H](N)CO)[C@@H]5C4)cc3)c(=O)n2)CC1 (stereo partly shown) [Compound 207]
[1]
  IC50: < 0.5 µM
[2]
  IC50: ≥ 1 µM
A. baumannn (Ab)
  MIC: > 32 µg/mL
E. coli (Ec)
  MIC: < 8 µg/mL
E. faecalis (Ef)
  MIC: 8 to 32 µg/mL
P. aeruginosa (Pa)
  MIC: > 32 µg/mL
S. aureus (Sa)
  MIC: < 8 µg/mL

## CC(Cc1ccc(-n2ccc(NC(=O)N3CCN(C(=O)C(C)(C)N)CC3)nc2=O)cc1C(F)(F)F)N1C[C@@H]2[C@@H](CN)[C@@H]2C1 (stereo partly shown) [Compound 208]
[1]
  IC50: < 0.5 µM
[2]
  IC50: ≥ 1 µM
A. baumannn (Ab)
  MIC: 8 to 32 µg/mL
E. coli (Ec)
  MIC: < 8 µg/mL
E. faecalis (Ef)
  MIC: < 8 µg/mL
P. aeruginosa (Pa)
  MIC: > 32 µg/mL
S. aureus (Sa)
  MIC: < 8 µg/mL

## CC(Cc1ccc(-n2ccc(NC(=O)N3CCN(C(=O)C(C)(C)N)CC3)nc2=O)cc1C(F)(F)F)N1C[C@@H]2[C@@H](N)[C@@H]2C1 (stereo partly shown) [Compound 209]
[1]
  IC50: ≥ 1 µM
[2]
  IC50: ≥ 1 µM
A. baumannn (Ab)
  MIC: > 32 µg/mL
E. coli (Ec)
  MIC: > 32 µg/mL
E. faecalis (Ef)
  MIC: > 32 µg/mL
P. aeruginosa (Pa)
  MIC: > 32 µg/mL
S. aureus (Sa)
  MIC: > 32 µg/mL

## CC(C)(N)C(=O)N1CCN(C(=O)Nc2ccn(-c3ccc(CCN4C[C@@H]5[C@H](C4)[C@H]5C(N)CO)cc3)c(=O)n2)CC1 (stereo partly shown) [Compound 210]
[1]
  IC50: 0.5 to 1 µM
[2]
  IC50: ≥ 1 µM
A. baumannn (Ab)
  MIC: > 32 µg/mL
E. coli (Ec)
  MIC: < 8 µg/mL
E. faecalis (Ef)
  MIC: 8 to 32 µg/mL
P. aeruginosa (Pa)
  MIC: > 32 µg/mL
S. aureus (Sa)
  MIC: < 8 µg/mL

## CCC(Cc1ccc(-n2ccc(NC(=O)N3CCN(C(=O)C(C)(C)N)CC3)nc2=O)cc1C(F)(F)F)N1C[C@@H]2[C@@H](CN)[C@@H]2C1 (stereo partly shown) [Compound 211]
[1]
  IC50: 0.5 to 1 µM
[2]
  IC50: ≥ 1 µM
A. baumannn (Ab)
  MIC: 8 to 32 µg/mL
E. coli (Ec)
  MIC: < 8 µg/mL
E. faecalis (Ef)
  MIC: < 8 µg/mL
P. aeruginosa (Pa)
  MIC: > 32 µg/mL
S. aureus (Sa)
  MIC: < 8 µg/mL

## CC(=O)NC[C@@H]1[C@H]2CN(C(C)Cc3ccc(-n4ccc(NC(=O)N5CCN(C(=O)C(C)(C)N)CC5)nc4=O)cc3)C[C@@H]12 (stereo partly shown) [Compound 212]
[1]
  IC50: ≥ 1 µM
[2]
  IC50: ≥ 1 µM
A. baumannn (Ab)
  MIC: > 32 µg/mL
E. coli (Ec)
  MIC: > 32 µg/mL
E. faecalis (Ef)
  MIC: > 32 µg/mL
P. aeruginosa (Pa)
  MIC: > 32 µg/mL
S. aureus (Sa)
  MIC: > 32 µg/mL

## CC(C)(N)C(=O)N1CCN(C(=O)Nc2ccn(-c3ccc(CCN4C[C@@H]5[C@H](C4)[C@H]5C(N)CN)cc3)c(=O)n2)CC1 (stereo partly shown) [Compound 213]
[1]
  IC50: ≥ 1 µM
[2]
  IC50: ≥ 1 µM
A. baumannn (Ab)
  MIC: > 32 µg/mL
E. coli (Ec)
  MIC: < 8 µg/mL
E. faecalis (Ef)
  MIC: > 32 µg/mL
P. aeruginosa (Pa)
  MIC: > 32 µg/mL
S. aureus (Sa)
  MIC: > 32 µg/mL

## CC(Cc1ccc(-n2ccc(NC(=O)N3CCN(C(=O)C(C)(C)N)CC3)nc2=O)cc1)N1CC2CCC(N)C2C1 (stereo not shown) [Compound 214]
[1]
  IC50: < 0.5 µM
[2]
  IC50: ≥ 1 µM
A. baumannn (Ab)
  MIC: > 32 µg/mL
E. coli (Ec)
  MIC: < 8 µg/mL
E. faecalis (Ef)
  MIC: < 8 µg/mL
P. aeruginosa (Pa)
  MIC: > 32 µg/mL
S. aureus (Sa)
  MIC: < 8 µg/mL

## CC(Cc1ccc(-n2ccc(NC(=O)N3CCN(C(=O)C(C)(C)N)CC3)nc2=O)cc1)N1CC2CCC(N)CC2C1 (stereo not shown) [Compound 215]
[1]
  IC50: < 0.5 µM
[2]
  IC50: ≥ 1 µM
A. baumannn (Ab)
  MIC: > 32 µg/mL
E. coli (Ec)
  MIC: < 8 µg/mL
E. faecalis (Ef)
  Ef + bicarb MIC: ++ (An MIC value (μg/mL) that is 8 μg/mL or greater and less than 32 μg/mL)
P. aeruginosa (Pa)
  MIC: > 32 µg/mL
S. aureus (Sa)
  MIC: < 8 µg/mL

## CC(Cc1ccc(-n2ccc(NC(=O)N3CCN(C(=O)C(C)(C)N)CC3)nc2=O)cc1)N1CC2CCCC(N)C2C1 (stereo not shown) [Compound 216]
[1]
  IC50: < 0.5 µM
[2]
  IC50: ≥ 1 µM
A. baumannn (Ab)
  MIC: > 32 µg/mL
E. coli (Ec)
  MIC: < 8 µg/mL
E. faecalis (Ef)
  MIC: < 8 µg/mL
P. aeruginosa (Pa)
  MIC: > 32 µg/mL
S. aureus (Sa)
  MIC: < 8 µg/mL

## CCC(Cc1ccc(-n2ccc(NC(=O)N3CCN(C(=O)C(C)(C)N)CC3)nc2=O)cc1)N1CC2CCC(N)C2C1 (stereo not shown) [Compound 217]
[1]
  IC50: < 0.5 µM
[2]
  IC50: ≥ 1 µM
A. baumannn (Ab)
  MIC: > 32 µg/mL
E. coli (Ec)
  MIC: < 8 µg/mL
E. faecalis (Ef)
  MIC: < 8 µg/mL
P. aeruginosa (Pa)
  MIC: > 32 µg/mL
S. aureus (Sa)
  MIC: < 8 µg/mL

## CCC(Cc1ccc(-n2ccc(NC(=O)N3CCN(C(=O)C(C)(C)N)CC3)nc2=O)cc1)N1CC2CCC(N)CC2C1 (stereo not shown) [Compound 218]
[1]
  IC50: < 0.5 µM
[2]
  IC50: ≥ 1 µM
A. baumannn (Ab)
  MIC: > 32 µg/mL
E. coli (Ec)
  MIC: < 8 µg/mL
E. faecalis (Ef)
  Ef + bicarb MIC: +++ (An MIC value (μg/mL) that is less than 8 μg/mL)
P. aeruginosa (Pa)
  MIC: > 32 µg/mL
S. aureus (Sa)
  MIC: < 8 µg/mL

## CCC(Cc1ccc(-n2ccc(NC(=O)N3CCN(C(=O)C(C)(C)N)CC3)nc2=O)cc1)N1CC2CCCC(N)C2C1 (stereo not shown) [Compound 219]
[1]
  IC50: < 0.5 µM
[2]
  IC50: ≥ 1 µM
A. baumannn (Ab)
  MIC: > 32 µg/mL
E. coli (Ec)
  MIC: < 8 µg/mL
E. faecalis (Ef)
  MIC: < 8 µg/mL
P. aeruginosa (Pa)
  MIC: > 32 µg/mL
S. aureus (Sa)
  MIC: < 8 µg/mL

## CC(Cc1ccc(-n2ccc(NC(=O)N3CCN(C(=O)C(C)(C)N)CC3)nc2=O)cc1)[N+]1(C)C[C@@H]2[C@@H](CN)[C@@H]2C1 (stereo partly shown) [Compound 220]
[1]
  IC50: < 0.5 µM
[2]
  IC50: ≥ 1 µM
A. baumannn (Ab)
  MIC: > 32 µg/mL
E. coli (Ec)
  MIC: < 8 µg/mL
E. faecalis (Ef)
  MIC: 8 to 32 µg/mL
P. aeruginosa (Pa)
  MIC: > 32 µg/mL
S. aureus (Sa)
  MIC: < 8 µg/mL

## CCC(Cc1ccc(-n2ccc(NC(=O)N3CCN(C(=O)C(C)(C)N)CC3)nc2=O)cc1)N1C[C@@H]2[C@@H](CNC)[C@@H]2C1 (stereo partly shown) [Compound 221]
[1]
  IC50: ≥ 1 µM
[2]
  IC50: ≥ 1 µM
A. baumannn (Ab)
  MIC: < 8 µg/mL
E. coli (Ec)
  MIC: < 8 µg/mL
E. faecalis (Ef)
  MIC: < 8 µg/mL
P. aeruginosa (Pa)
  MIC: > 32 µg/mL
S. aureus (Sa)
  MIC: < 8 µg/mL

## CC(Cc1ccc(-n2ccc(NC(=O)N3CCN(C(=O)[C@H](C)N)CC3)nc2=O)cc1)N1C[C@@H]2[C@@H](CN)[C@@H]2C1 (stereo partly shown) [Compound 222]
[1]
  IC50: 0.5 to 1 µM
[2]
  IC50: ≥ 1 µM
A. baumannn (Ab)
  MIC: > 32 µg/mL
E. coli (Ec)
  MIC: < 8 µg/mL
E. faecalis (Ef)
  MIC: 8 to 32 µg/mL
P. aeruginosa (Pa)
  MIC: > 32 µg/mL
S. aureus (Sa)
  MIC: < 8 µg/mL

## CC(C)[C@H](N)C(=O)N1CCN(C(=O)Nc2ccn(-c3ccc(CC(C)N4C[C@@H]5[C@@H](CN)[C@@H]5C4)cc3)c(=O)n2)CC1 (stereo partly shown) [Compound 223]
[1]
  IC50: < 0.5 µM
[2]
  IC50: ≥ 1 µM
A. baumannn (Ab)
  MIC: > 32 µg/mL
E. coli (Ec)
  MIC: < 8 µg/mL
E. faecalis (Ef)
  MIC: < 8 µg/mL
P. aeruginosa (Pa)
  MIC: > 32 µg/mL
S. aureus (Sa)
  MIC: < 8 µg/mL

## CCC(N)(CC)C(=O)N1CCN(C(=O)Nc2ccn(-c3ccc(CN4C[C@@H]5[C@@H](N)[C@@H]5C4)cc3)c(=O)n2)CC1 [Compound 224]
[1]
  IC50: < 0.5 µM
[2]
  IC50: ≥ 1 µM
A. baumannn (Ab)
  MIC: > 32 µg/mL
E. coli (Ec)
  MIC: < 8 µg/mL
E. faecalis (Ef)
  MIC: < 8 µg/mL
P. aeruginosa (Pa)
  MIC: > 32 µg/mL
S. aureus (Sa)
  MIC: < 8 µg/mL

## CC(Cc1ccc(-n2ccc(NC(=O)N3CCN(C(=O)C(C)(C)N)CC3)nc2=O)cc1)N1CCC2(CC(N)C2)C1 (stereo not shown) [Compound 225]
[1]
  IC50: 0.5 to 1 µM
[2]
  IC50: ≥ 1 µM
A. baumannn (Ab)
  MIC: > 32 µg/mL
E. coli (Ec)
  MIC: < 8 µg/mL
E. faecalis (Ef)
  Ef + bicarb MIC: +++ (An MIC value (μg/mL) that is less than 8 μg/mL)
P. aeruginosa (Pa)
  MIC: > 32 µg/mL
S. aureus (Sa)
  MIC: < 8 µg/mL

## CC(Cc1ccc(-n2ccc(NC(=O)N3CCN(C(=O)C4(N)CC4)CC3)nc2=O)cc1)N1C[C@@H]2[C@@H](CN)[C@@H]2C1 (stereo partly shown) [Compound 226]
[1]
  IC50: ≥ 1 µM
[2]
  IC50: ≥ 1 µM
A. baumannn (Ab)
  MIC: > 32 µg/mL
E. coli (Ec)
  MIC: > 32 µg/mL
E. faecalis (Ef)
  MIC: > 32 µg/mL
P. aeruginosa (Pa)
  MIC: > 32 µg/mL
S. aureus (Sa)
  MIC: > 32 µg/mL

## CC(Cc1ccc(-n2ccc(NC(=O)N3CCN(C(=O)CN)CC3)nc2=O)cc1)N1C[C@@H]2[C@@H](CN)[C@@H]2C1 (stereo partly shown) [Compound 227]
[1]
  IC50: 0.5 to 1 µM
[2]
  IC50: ≥ 1 µM
A. baumannn (Ab)
  MIC: > 32 µg/mL
E. coli (Ec)
  MIC: < 8 µg/mL
E. faecalis (Ef)
  MIC: < 8 µg/mL
P. aeruginosa (Pa)
  MIC: > 32 µg/mL
S. aureus (Sa)
  MIC: < 8 µg/mL

## CC(Cc1ccc(-n2ccc(NC(=O)N3CCN(C(=O)[C@@H]4CCCN4)CC3)nc2=O)cc1)N1C[C@@H]2[C@@H](CN)[C@@H]2C1 (stereo partly shown) [Compound 228]
[1]
  IC50: ≥ 1 µM
[2]
  IC50: ≥ 1 µM
A. baumannn (Ab)
  MIC: > 32 µg/mL
E. coli (Ec)
  MIC: < 8 µg/mL
E. faecalis (Ef)
  MIC: 8 to 32 µg/mL
P. aeruginosa (Pa)
  MIC: > 32 µg/mL
S. aureus (Sa)
  MIC: < 8 µg/mL
